Measurements published in paper PMC9121578, “Celastrol mitigates inflammation in sepsis by inhibiting the PKM2-dependent Warburg effect” (Military Medical Research, 2022).

Experiments:
Type in all cases: binding
[1] = molecular target: T1, HMGB1 (high mobility group box 1) (Homo sapiens, UniProt P09429); experiment: probe labelling, click chemistry, in-gel fluorescence; conditions: room temperature; PBS; covalent
T1 construct: recombinant full length, pET-24d, E. coli BL21, Ni-NTA purified; a recombinant human HMGB1 was also bought from Abcam
T1 sequence (P09429 1-215): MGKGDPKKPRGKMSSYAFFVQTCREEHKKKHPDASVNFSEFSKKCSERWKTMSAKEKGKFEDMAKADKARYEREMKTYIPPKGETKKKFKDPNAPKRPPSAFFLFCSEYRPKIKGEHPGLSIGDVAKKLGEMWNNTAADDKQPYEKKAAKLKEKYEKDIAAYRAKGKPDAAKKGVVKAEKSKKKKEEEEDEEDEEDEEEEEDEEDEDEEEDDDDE

[2] = molecular target: T2, PKM2 (pyruvate kinase M2) (Homo sapiens, UniProt P14618); experiment: as above; conditions: room temperature; PBS; covalent
T2 construct: gene PKM; recombinant, pET28a, E. coli BL21, Ni-NTA purified; full length implied

[3] = molecular target: T2, PKM2 (pyruvate kinase M2); experiment: surface plasmon resonance, CM5 chip, steady-state […]
[4] = molecular target: T3, LDHA (lactate dehydrogenase A) (Homo sapiens, UniProt P00338); experiment: as above
T3 construct: recombinant human LDHA obtained from Abcam

[5] = molecular target: T1, HMGB1 (high mobility group box 1); experiment: as above
HMGB1 B box = molecular target: T4, HMGB1 B box (Homo sapiens, UniProt P09429); experiment: UV-visible absorption; competition with Cel-P labelling; conditions: 100 μmol/L Cel; covalent
T4 construct: B box domain (contains Cys106)
T4 sequence (P09429 95-163 limits assumed): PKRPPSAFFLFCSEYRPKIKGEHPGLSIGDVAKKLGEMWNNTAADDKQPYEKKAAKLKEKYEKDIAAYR

T2 sequence (P14618 2-531): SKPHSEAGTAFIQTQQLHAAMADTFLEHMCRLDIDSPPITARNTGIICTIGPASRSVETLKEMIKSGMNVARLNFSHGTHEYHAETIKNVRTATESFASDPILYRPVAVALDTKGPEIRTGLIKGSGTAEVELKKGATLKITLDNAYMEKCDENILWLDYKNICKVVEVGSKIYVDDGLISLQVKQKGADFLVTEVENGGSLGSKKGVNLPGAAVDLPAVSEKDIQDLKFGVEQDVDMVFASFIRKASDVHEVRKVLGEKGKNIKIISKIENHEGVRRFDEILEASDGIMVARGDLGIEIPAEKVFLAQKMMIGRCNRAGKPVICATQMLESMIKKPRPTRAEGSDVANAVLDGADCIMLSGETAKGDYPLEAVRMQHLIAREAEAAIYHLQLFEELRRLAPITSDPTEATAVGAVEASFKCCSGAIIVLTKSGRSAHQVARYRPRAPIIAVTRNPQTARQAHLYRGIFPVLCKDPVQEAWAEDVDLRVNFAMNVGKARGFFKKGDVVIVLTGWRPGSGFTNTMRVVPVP

## C#CCNC(=O)[C@]1(C)CC[C@]2(C)CC[C@]3(C)C4=CC=C5C(=CC(=O)C(O)=C5C)[C@]4(C)CC[C@@]3(C)[C@@H]2C1 [Cel-P, celastrol-probe]
[1]
  probe labelling, click chemistry, in-gel fluorescence: Cel-P labeled recombinant human HMGB1 (Fig. 6c)
[2]
  probe labelling, click chemistry, in-gel fluorescence: These proteins were labeled with Cel-P in a dose-dependent manner

## CC1=C(O)C(=O)C=C2C1=CC=C1[C@@]2(C)CC[C@@]2(C)[C@@H]3C[C@](C)(C(=O)O)CC[C@]3(C)CC[C@]12C [Cel, Celastrol]
[3]
  Kd: 635 µM
[4]
  Kd: 562 µM
[5]
  Kd: 4.44 µM
HMGB1 B box
  UV-visible absorption; competition with Cel-P labelling: UV–visible absorption by Cel decreased upon mixing with the B box domain
